In patent US7951829B2, “Benzimidazole modulators of VR1” (Janssen Pharmaceutica NV, priority 2006, dated 2011):

Molecular target: T1, hVR1 (Homo sapiens, UniProt Q8NER1)
T1 construct: expressed in transfected cells; host or cells: HEK293
Assay: Human VR1 (hVR1) Functional Assay (FLIPR intracellular calcium, capsaicin challenge)
Format: cell-based
Conditions: capsaicin 0.030 μM, HEK293 cells expressing hVR1; for inhibition at 1 µM: test concentration 1 μM

T1 sequence (Q8NER1 whole entry): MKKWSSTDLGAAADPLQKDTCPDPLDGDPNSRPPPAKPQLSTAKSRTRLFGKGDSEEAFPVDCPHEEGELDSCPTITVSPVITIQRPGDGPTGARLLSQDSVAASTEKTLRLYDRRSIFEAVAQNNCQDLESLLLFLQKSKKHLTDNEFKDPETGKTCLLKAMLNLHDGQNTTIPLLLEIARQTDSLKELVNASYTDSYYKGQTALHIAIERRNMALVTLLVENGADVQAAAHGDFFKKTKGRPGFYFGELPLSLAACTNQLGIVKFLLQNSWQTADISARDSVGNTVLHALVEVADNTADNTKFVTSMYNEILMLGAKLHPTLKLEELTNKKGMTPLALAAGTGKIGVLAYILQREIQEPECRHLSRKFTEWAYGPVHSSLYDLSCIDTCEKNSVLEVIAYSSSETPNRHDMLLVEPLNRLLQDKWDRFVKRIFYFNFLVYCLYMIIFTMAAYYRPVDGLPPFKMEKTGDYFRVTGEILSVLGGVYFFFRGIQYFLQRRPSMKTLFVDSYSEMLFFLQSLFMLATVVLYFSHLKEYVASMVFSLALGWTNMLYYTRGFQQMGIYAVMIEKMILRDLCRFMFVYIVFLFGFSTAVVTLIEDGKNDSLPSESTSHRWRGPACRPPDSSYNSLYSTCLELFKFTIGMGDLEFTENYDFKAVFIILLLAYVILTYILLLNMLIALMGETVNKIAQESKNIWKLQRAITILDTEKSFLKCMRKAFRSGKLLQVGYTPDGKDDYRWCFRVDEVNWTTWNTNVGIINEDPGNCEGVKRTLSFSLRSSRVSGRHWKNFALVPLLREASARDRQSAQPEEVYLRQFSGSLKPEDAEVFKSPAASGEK

Row | IC50 | inhibition at 1 µM | Compound
1 | 20 nM | 96% | NS(=O)(=O)c1ccc(C(F)(F)F)cc1-c1ccc2[nH]c(CCc3ccc(C(F)(F)F)cc3)nc2c1 [Cpd 445, 4-trifluoromethyl-2-{2-[2-(4-trifluoromethyl-phenyl)-ethyl]-1H-benzimidazol-5-yl}-benzenesulfonamide]
2 | 47 nM | 94% | NS(=O)(=O)c1ccccc1-c1ccc2[nH]c(CCc3ccc(F)cc3C(F)(F)F)nc2c1 [Cpd 404, 2-{2-[2-(4-fluoro-2-trifluoromethyl-phenyl)-ethyl]-1H-benzimidazol-5-yl}-benzenesulfonamide]
3 | – | 10% | CC(C)(C)c1ccc(/C=C/c2nc3cc(-c4ccc(C(N)=O)cc4)ccc3[nH]2)cc1 [Cpd 7, (E)-4-{2-[2-(4-tert-butyl-phenyl)-vinyl]-1H-benzimidazol-5-yl}-benzamide]
4 | 31 nM | 98% | NS(=O)(=O)c1ccccc1-c1ccc2[nH]c(CCc3ccc(Cl)cc3)nc2c1 [Cpd 139, 2-{2-[2-(4-chloro-phenyl)-ethyl]-1H-benzimidazol-5-yl}-benzenesulfonamide]
5 | – | 4% | CC(=O)Nc1cccc(-c2ccc3[nH]c(/C=C/c4ccc(F)c(F)c4)nc3c2)c1 [Cpd 25, (E)-N-(3-{2-[2-(3,4-difluoro-phenyl)-vinyl]-1H-benzimidazol-5-yl}-phenyl)-acetamide]
6 | – | 7% | CC(C)(O)c1ccccc1-c1ccc2[nH]c(C3CC3c3cccc(C(F)(F)F)c3)nc2c1 (centres unmarked) [Cpd 234, 2-(2-{2-[2-(3-trifluoromethyl-phenyl)-cyclopropyl]-1H-benzimidazol-5-yl}-phenyl)-propan-2-ol]
7 | 139 nM | 97% | CS(=O)(=O)c1cc(Cl)ccc1/C=C/c1nc2cc(-c3ccccc3S(N)(=O)=O)ccc2[nH]1 [Cpd 375, (E)-2-{2-[2-(4-chloro-2-methanesulfonyl-phenyl)-vinyl]-1H-benzimidazol-5-yl}-benzenesulfonamide]
8 | 4 nM | 96% | CC(C)c1ccc(CCc2nc3cc(-c4ccccc4S(N)(=O)=O)ccc3[nH]2)cc1 [Cpd 442, 2-{2-[2-(4-isopropyl-phenyl)-ethyl]-1H-benzimidazol-5-yl}-benzenesulfonamide]
9 | 130 nM | 98% | CC(=O)c1ccccc1-c1cc2nc(/C=C/c3ccc(C(F)(F)F)cc3)[nH]c2cc1Cl [Cpd 67, (E)-1-(2-{6-chloro-2-[2-(4-trifluoromethyl-phenyl)-vinyl]-1H-benzimidazol-5-yl}-phenyl)-ethanone]
10 | 16 nM | 100% | NS(=O)(=O)c1ccccc1-c1ccc2[nH]c(CCc3cccc(C(F)(F)F)c3)nc2c1 [Cpd 175, 2-{2-[2-(3-trifluoromethyl-phenyl)-ethyl]-1H-benzimidazol-5-yl}-benzenesulfonamide]
11 | 5 nM | 99% | CC(C)(O)c1ccccc1-c1ccc2[nH]c(C#Cc3ccc(C(F)(F)F)cc3)nc2c1 [Cpd 492, 2-{2-[2-(4-trifluoromethyl-phenylethynyl)-1H-benzimidazol-5-yl]-phenyl}-propan-2-ol]
12 | 50 nM | 100% | CNS(=O)(=O)c1ccccc1-c1ccc2[nH]c(/C=C/c3ccc(N(C)C)cc3)nc2c1 [Cpd 318, (E)-2-{2-[2-(4-dimethylamino-phenyl)-vinyl]-1H-benzimidazol-5-yl}-N-methyl-benzenesulfonamide]
13 | – | 27% | CNS(=O)(=O)c1ccccc1-c1ccc2[nH]c(/C=C/c3ccc(C(=O)NC(C)C)cc3)nc2c1 [Cpd 450, (E)-N-isopropyl-4-{2-[5-(2-methylsulfamoyl-phenyl)-1H-benzimidazol-2-yl]-vinyl}-benzamide]
14 | – | 7% | CC(C)(C)NS(=O)(=O)c1ccccc1-c1ccc2[nH]c(C3CC3c3ccc(C(F)(F)F)cc3)nc2c1 (centres unmarked) [Cpd 499, N-tert-butyl-2-{2-[2-(4-trifluoromethyl-phenyl)-cyclopropyl]-1H-benzimidazol-5-yl}-benzenesulfonamide]
15 | 40 nM | 99% | NS(=O)(=O)c1ccccc1-c1ccc2[nH]c(/C=C/c3cc(Br)ccc3F)nc2c1 [Cpd 379, (E)-2-{2-[2-(5-bromo-2-fluoro-phenyl)-vinyl]-1H-benzimidazol-5-yl}-benzenesulfonamide]
16 | > 500 nM | – | O=Cc1ccccc1-c1ccc2[nH]c(/C=C/c3ccc(C(F)(F)F)cc3)nc2c1 [Cpd 484, (E)-2-{2-[2-(4-trifluoromethyl-phenyl)-vinyl]-1H-benzimidazol-5-yl}-benzaldehyde]
17 | 250 nM | 96% | CS(=O)(=O)Nc1ccccc1-c1ccc2[nH]c(/C=C/c3ccc(F)c(F)c3)nc2c1 [Cpd 28, (E)-N-(2-{2-[2-(3,4-difluoro-phenyl)-vinyl]-1H-benzimidazol-5-yl}-phenyl)-methanesulfonamide]
18 | 17 nM | 100% | CNS(=O)(=O)c1ccccc1-c1ccc2[nH]c(/C=C/c3ccc(C(F)(F)F)cc3C(F)(F)F)nc2c1 [Cpd 455, (E)-2-{2-[2-(2,4-bis-trifluoromethyl-phenyl)-vinyl]-1H-benzimidazol-5-yl}-N-methyl-benzenesulfonamide]

Row | IC50 | inhibition at 1 µM | Compound
19 | 10 nM | 100% | CC(C)(O)c1ccccc1-c1ccc2[nH]c(C3CC3c3ccc(C(F)(F)F)cc3)nc2c1 (centres unmarked) [Cpd 471, 2-(2-{2-[2-(4-trifluoromethyl-phenyl)-cyclopropyl]-1H-benzimidazol-5-yl}-phenyl)-propan-2-ol]
20 | 27 nM | 99% | CNS(=O)(=O)c1ccccc1-c1ccc2[nH]c(/C=C/c3ccc(Cl)cc3F)nc2c1 [Cpd 339, (E)-2-{2-[2-(4-chloro-2-fluoro-phenyl)-vinyl]-1H-benzimidazol-5-yl}-N-methyl-benzenesulfonamide]
21 | 53 nM | 98% | NS(=O)(=O)c1ccccc1-c1ccc2[nH]c(/C=C/c3ccc(F)cc3C(F)(F)F)nc2c1 [Cpd 367, (E)-2-{2-[2-(4-fluoro-2-trifluoromethyl-phenyl)-vinyl]-1H-benzimidazol-5-yl}-benzenesulfonamide]
22 | 15 nM | 99% | NS(=O)(=O)c1ccccc1-c1ccc2[nH]c(/C=C/c3cccc(C(F)(F)F)c3F)nc2c1 [Cpd 368, (E)-2-{2-[2-(2-fluoro-3-trifluoromethyl-phenyl)-vinyl]-1H-benzimidazol-5-yl}-benzenesulfonamide]
23 | 6 nM | 99% | CNS(=O)(=O)c1ccccc1-c1ccc2[nH]c(/C=C/c3ccc(SC(F)(F)F)cc3)nc2c1 [Cpd 341, (E)-N-methyl-2-{2-[2-(4-trifluoromethylsulfanyl-phenyl)-vinyl]-1H-benzimidazol-5-yl}-benzenesulfonamide]
24 | 350 nM | 85% | CS(=O)(=O)Nc1ccccc1-c1ccc2[nH]c(/C=C/c3cc(F)cc(C(F)(F)F)c3)nc2c1 [Cpd 411, (E)-N-(2-{2-[2-(3-fluoro-5-trifluoromethyl-phenyl)-vinyl]-1H-benzimidazol-5-yl}-phenyl)-methanesulfonamide]
25 | 28 nM | 100% | NS(=O)(=O)c1ccccc1-c1ccc2[nH]c(/C=C/c3cccc(Br)c3)nc2c1 [Cpd 376, (E)-2-{2-[2-(3-bromo-phenyl)-vinyl]-1H-benzimidazol-5-yl}-benzenesulfonamide]
26 | 17 nM | 99% | NS(=O)(=O)c1ccccc1-c1ccc2[nH]c(/C=C/c3ccccc3Cl)nc2c1 [Cpd 365, (E)-2-{2-[2-(2-chloro-phenyl)-vinyl]-1H-benzimidazol-5-yl}-benzenesulfonamide]
27 | 54 nM | 99% | NS(=O)(=O)c1ccccc1-c1ccc2[nH]c(CCc3cc(C(F)(F)F)ccc3C(F)(F)F)nc2c1 [Cpd 388, 2-{2-[2-(2,5-bis-trifluoromethyl-phenyl)-ethyl]-1H-benzimidazol-5-yl}-benzenesulfonamide]
28 | 178 nM | 94% | CNS(=O)(=O)c1ccccc1-c1ccc2[nH]c(/C=C/c3cc(C(F)(F)F)ccc3C(F)(F)F)nc2c1 [Cpd 334, (E)-2-{2-[2-(2,5-bis-trifluoromethyl-phenyl)-vinyl]-1H-benzimidazol-5-yl}-N-methyl-benzenesulfonamide]
29 | 19 nM | 100% | NC(=O)c1ccccc1-c1ccc2[nH]c(C3CC3c3ccc(C(F)(F)F)cc3)nc2c1 (centres unmarked) [Cpd 498, 2-{2-[2-(4-trifluoromethyl-phenyl)-cyclopropyl]-1H-benzimidazol-5-yl}-benzamide]
30 | 6 nM | 98% | CC(C)c1ccc(/C=C/c2nc3cc(-c4ccccc4S(N)(=O)=O)ccc3[nH]2)cc1 [Cpd 429, (E)-2-{2-[2-(4-isopropyl-phenyl)-vinyl]-1H-benzimidazol-5-yl}-benzenesulfonamide]
31 | 363 nM | 75% | Nc1ccccc1-c1ccc2[nH]c(/C=C/c3ccc(C(F)(F)F)cc3)nc2c1 [Cpd 465, (E)-2-{2-[2-(4-trifluoromethyl-phenyl)-vinyl]-1H-benzimidazol-5-yl}-phenylamine]
32 | 440 nM | 80% | Oc1ccccc1-c1cc2nc(/C=C/c3ccc(C(F)(F)F)cc3)[nH]c2cc1F [Cpd 59, (E)-2-{6-fluoro-2-[2-(4-trifluoromethyl-phenyl)-vinyl]-1H-benzimidazol-5-yl}-phenol]
33 | 68 nM | – | OCc1ccccc1-c1ccc2[nH]c(/C=C/c3ccc(C(F)(F)F)cc3)nc2c1 [Cpd 476, (E)-(2-{2-[2-(4-trifluoromethyl-phenyl)-vinyl]-1H-benzimidazol-5-yl}-phenyl)-methanol]
34 | 11 nM | 99% | NS(=O)(=O)c1ccccc1-c1ccc2[nH]c(/C=C/c3ccc(C(F)(F)F)c(F)c3)nc2c1 [Cpd 423, (E)-2-{2-[2-(3-fluoro-4-trifluoromethyl-phenyl)-vinyl]-1H-benzimidazol-5-yl}-benzenesulfonamide]
35 | 320 nM | – | CC(=O)c1ccccc1-c1ccc2[nH]c(/C=C/c3ccc(OC(F)(F)F)cc3)nc2c1 [Cpd 20, (E)-1-(2-{2-[2-(4-trifluoromethoxy-phenyl)-vinyl]-1H-benzimidazol-5-yl}-phenyl)-ethanone]
